# From patent US20140230091A1, “MODIFIED PLANTS WITH INCREASED OIL CONTENT” (BROOKHAVEN SCIENCE ASSOCIATES, LLC, priority 2011, published 2014)
# Key:
# [1] = system: Brassica napus cv Jet Neuf suspension cell cultures; experiment: Cell culture growth and analysis of B. napus suspension cells fed Tween-80; type: cell-based; details: concentrations up to 10 mM
# Protocol: Brassica napus cv Jet Neuf suspension cell cultures were grown in NLN medium (Lichter 1982, Z. Pflanzenphysiol, 105, 427-434) with modifications (Shi et al. 2008, Plant Cell Tiss Org, 92 131-139). Cells were grown shaking at 160 rpm at 25° C. in either 50 mL or 100 mL volumes (in 125 mL or 250 mL flasks, respectively) under constant fluorescent light at 50 […]. Medium was refreshed every 48 h for experiments lasting longer than two days. Tween-esters were obtained from Sigma (St. Louis, Mo. USA). A 150 mM stock solution was made by dissolving 9.8 g in 50 mL of water and it was filter sterilized before addition to cultures. Subculturing was done every eight days and new cultures were inoculated with about 200 mg of cells. Cells were harvested by filtering with a Buchner funnel, were rinsed three times with distilled water, and were frozen immediately in liquid N2 in preweighed aluminum foil pouches. Dry weight to fresh weight ratio was determined by lyophilizing a known fresh weight of cells. For SDS-PAGE, proteins were extracted in 3 volumes (w/v) of 50 mM Tris-Cl, pH 7.5, 10 mM KCl, 5 mM MgCl2, 1 mM EDTA, 1 mM DTT, 0.1% Triton X-100, and were quantified by Bradford assay.
# In order to study the feedback regulation of fatty acid synthesis it was necessary to first establish conditions where fatty acids could be fed while minimizing any negative pleiotropic effects. […]
# [2] = system: fatty acid synthesis in B. napus cells; experiment: 14C-acetate / 14C-malonate labeling of lipids (feedback inhibition of fatty acid synthesis); type: cell-based, Brassica napus
# Protocol: All radioisotopes were obtained from American Radiolabeled Chemicals (St. Louis, Mo. USA). Labeling was conducted on cells 5 days after subculturing with a culture density of ˜20 mg FW mL^−1 and that had medium refreshed 16 h prior. For labeling, three 1 mL aliquots of cells were carefully removed from each flask and were labeled with either 0.2 μCi of 1,2-^14C-acetate (50-60 mCi mmol^−1) or 2-^14C-malonate (40-60 mCi mmol^−1) for 15 minutes at 25° C. with occasional shaking. Haloxyfop (Sigma) was dissolved in DMSO and added 30 min prior to labeling. Lipids were extracted and separated by TLC as described above. Radioactivity was detected by phosphorimaging and was quantified using ImageQuant software (GE Healthcare, Piscataway, N.J., USA). Incorporation of label into individual fatty acids was determined by making FAMEs as described above, separating the methyl esters by TLC as described in (Koo, Fulda, Browse and Ohlrogge 2005, Plant J, 44, 620-632) and measuring radioactivity by phosphorimaging.
# Feedback inhibition of fatty acid synthesis was measured by the addition of a ^14C-acetate tracer. […] Sterol synthesis is dependent on acetyl-CoA and ATP, both of which are required for fatty acid synthesis. Therefore, if fatty acid synthesis is inhibited due to substrate limitation; so should be sterol biosynthesis. ^14C-acetate incorporation into sterols was unaffected by Tween-80 feeding, while incorporation into free fatty acids mirrored that of total lipids (FIG. 5), showing that the effect is restricted to fatty acid synthesis. […] Three hour time points were used for the remainder of this study to separate the period of maximum feedback inhibition from any lipid homeostatic mechanisms arising from the gross fatty acid compositional changes caused by long term Tween-80 feeding.
# Plants contain plastidic and cytosolic ACCase and F AS enzyme systems, both of which are capable of incorporating ^14C-acetate into fatty acids. Comparing the distribution of label in individual fatty acid species can therefore provide information on the relative contribution of these pathways. […] The degree to which ^14C-acetate incorporation is inhibited by haloxyfop is proportional to cytosolic elongation activity, whereas haloxyfop-resistant incorporation is from the de nova pathway inside the plastid.
# To separate these possibilities, we exploited the fact that exogenous malonate can be converted to malonyl-CoA and used by FAS, bypassing the ACCase reaction (Kannangara et al. 1973, Plant Physiol, 52, 156-161). If ACCase is the only point of inhibition then the rate of ^14C-malonate labeling of de novo fatty acids should be the same in cultures with or without Tween-80. […] Therefore ACCase, and not F AS, is inhibited by Tween-80 feeding. When combined, the data from FIG. 6 unambiguously identify plastidic ACCase as the target of Tween-80 induced feedback inhibition.
substance,measurement,setting,value
Tween-80,effect on growth rate,[1],no effect
same,reduction of incorporation of 14C-acetate into fatty acids,[2]; 3 hours of 10 mM Tween-80 feeding,40%
same,incorporation of 14C-malonate into 16 and 18 carbon fatty acids,"[2]; 3 hours of 10 mM Tween-80 feeding, compared to 14C-acetate labeled controls",not inhibited
same,14C-acetate incorporation into sterols,[2]; Tween-80 feeding,unaffected
same,reversibility of feedback inhibition after removal,[2]; after removal of Tween-80 following 3 hour exposure to 10 mM,completely reversible
same,haloxyfop-resistant 14C-acetate incorporation,[2]; cultures with 10 mM Tween-80,reduced by about half
same,Relative 14C-acetate incorporation (% control),"[2]; relative to a control sample without any Tweens, mean of three repeats ± SD",50.9 ± 7.0 % control
same,reduction of rate of 14C-acetate incorporation into lipids,[2]; three hours after addition of 10 mM Tween-80,40%
